Assay [1] has as its target T1, MC4-R (Homo sapiens, UniProt P32245). The experiment in a line: Competitive inhibition binding assay, 125I-NDP-α-MSH, MC4-R. Particulars: 1 μM compound; inhibition of 125I-NDP-α-MSH binding; mean of triplicates; results less than 0% reported as 0%. More on the design: expressed in transfected cells. The method, boiled down: (§1)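 Membranes from hMC3-R, hMC4-R or hMC5-R cells, or B-16 mouse melanoma cells (MC1-R), were incubated 90 min at room temperature with 0.4 nM 125I-NDP-α-MSH in HEPES pH 7.2 with Mg2+/Ca2+/K+, and test compound generally at 1 μM. Filter-bound radioactivity was gamma counted. Specific binding was defined with 1 μM α-MSH; triplicate means.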

Assay [2] deals with T2, MC1-R (B-16 mouse melanoma cells) (Mus musculus, UniProt Q01727).
T2 construct: B-16 mouse melanoma cells (containing MC1-R); endogenous in cells; host or cells: B-16 mouse melanoma cells
The experiment in a line: Ki determination by the method of Example 4, MC1-R. Type of assay: binding. Particulars: read-out: Ki (nM) MC1-R. The method, then:
(§2) The Ki (nM) of certain peptidomimetics were determined, as was the agonist/antagonist status with respect to MC4-R, Functional evaluation of compounds at melanocortin receptors was performed by measuring the accumulation of intracellular cAMP in HEK-293 cells expressing MC3-R, MC4-R or MC5-R, and in B-16 mouse melanoma cells (containing MC1-R). Antagonistic activity was determined by measuring the inhibition of α-MSH-induced cAMP levels following exposure to the compounds. Cells, suspended in Earle's Balanced Salt Solution containing 10 mM HEPES, pH 7.5, 5 mM MgCl2, 1 mM glutamine, 0.1% albumin and 0.6 mM 3-isobutyl-1-methyl-xanthine, a phosphodiesterase inhibitor, were plated in 96 well plates at a density of 0.5×10^5 cells per well. Cells were incubated with the test compounds in the presence or absence of α-MSH for 1 hour at 37° C. cAMP levels were measured by EIA (Amersham) in the cell lysates. Data analysis and EC50 values were determined using nonlinear regression analysis with Prism Graph-Pad software.

Assay [3] concerns the target T2, MC1-R (B-16 mouse melanoma cells). The experiment in a line: cAMP assay for agonist/antagonist status, MC1-R. It is filed as cell-based. The method, then:
as §2

The target in assay [4] is T1, MC4-R. Put plainly: Ki determination by the method of Example 4, MC4-R. Type of assay: binding. More on the design: expressed in transfected cells; host or cells: HEK-293. Particulars: read-out: Ki (nM) MC4-R. The procedure:
as §2

Assay [5] has as its target T3, MC5-R (Homo sapiens, UniProt P33032). Put plainly: Competitive inhibition binding assay, 125I-NDP-α-MSH, MC5-R. More on the design: expressed in transfected cells. Conditions: 1 μM compound; inhibition of 125I-NDP-α-MSH binding; mean of triplicates; results less than 0% reported as 0%. The method, boiled down: as §1
The target in the next assay is T4, MC5-R (HEK-293 cells) (Homo sapiens, UniProt P33032).
T4 construct: expressed in transfected cells; host or cells: HEK-293
The experiment in a line: cAMP assay for agonist/antagonist status, MC5-R. Type of assay: cell-based. The procedure: as §2
On the technique in general: Changes in cAMP serve as a functional read-out for many G protein-coupled receptors.

Assay [6] deals with T5, MC3-R (Homo sapiens, UniProt P41968). Put plainly: Competitive inhibition binding assay, 125I-NDP-α-MSH, MC3-R. More on the design: expressed in transfected cells. Conditions: 1 μM compound; inhibition of 125I-NDP-α-MSH binding; mean of triplicates; results less than 0% reported as 0%. The gist of the method:
as §1

For the next assay, the target named is T6, MC4-R (HEK-293 cells) (Homo sapiens, UniProt P32245).
T6 construct: expressed in transfected cells; host or cells: HEK-293
The experiment in a line: cAMP assay for agonist/antagonist status, MC4-R. It is filed as cell-based. The method, then: as §2

The target in assay [7] is T3, MC5-R. The experiment in a line: Ki determination by the method of Example 4, MC5-R. It is filed as binding. More on the design: expressed in transfected cells; host or cells: HEK-293. Particulars: read-out: Ki (nM) MC5-R. The procedure:
as §2

The target of assay [8] is T5, MC3-R. Put plainly: Ki determination by the method of Example 4, MC3-R. It is filed as binding. Particulars: read-out: Ki (nM) MC3-R. More on the design: expressed in transfected cells; host or cells: HEK-293. The procedure: as §2
Assay [9] has as its target T2, MC1-R (B-16 mouse melanoma cells). The experiment in a line: Competitive inhibition binding assay, 125I-NDP-α-MSH, MC1-R. Conditions: 1 μM compound; inhibition of 125I-NDP-α-MSH binding; mean of triplicates; results less than 0% reported as 0%. The method, boiled down:
as §1

The Inhibition is how much of the control response was suppressed. Read a low Inhibition as a weak effect. As a reminder, the Ki is the dissociation constant of the complex between target and ligand, obtained from inhibition or displacement.

T2 sequence (Q01727 whole entry): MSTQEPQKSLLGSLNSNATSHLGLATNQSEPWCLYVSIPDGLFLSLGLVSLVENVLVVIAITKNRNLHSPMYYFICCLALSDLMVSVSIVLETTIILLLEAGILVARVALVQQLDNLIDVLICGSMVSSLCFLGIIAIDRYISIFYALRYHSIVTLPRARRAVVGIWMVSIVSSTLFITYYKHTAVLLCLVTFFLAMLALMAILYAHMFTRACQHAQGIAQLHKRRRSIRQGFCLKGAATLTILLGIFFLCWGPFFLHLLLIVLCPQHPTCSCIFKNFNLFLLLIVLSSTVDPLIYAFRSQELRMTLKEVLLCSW
T3 sequence (P33032 whole entry): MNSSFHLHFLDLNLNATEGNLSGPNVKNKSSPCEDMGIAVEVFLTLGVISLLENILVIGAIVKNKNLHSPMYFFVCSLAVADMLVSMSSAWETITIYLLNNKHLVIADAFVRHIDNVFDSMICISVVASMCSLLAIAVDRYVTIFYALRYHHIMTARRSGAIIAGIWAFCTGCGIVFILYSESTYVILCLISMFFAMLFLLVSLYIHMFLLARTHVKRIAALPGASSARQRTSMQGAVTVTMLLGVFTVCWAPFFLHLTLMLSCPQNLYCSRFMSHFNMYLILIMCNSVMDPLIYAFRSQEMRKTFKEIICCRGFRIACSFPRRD
T5 sequence (P41968 whole entry): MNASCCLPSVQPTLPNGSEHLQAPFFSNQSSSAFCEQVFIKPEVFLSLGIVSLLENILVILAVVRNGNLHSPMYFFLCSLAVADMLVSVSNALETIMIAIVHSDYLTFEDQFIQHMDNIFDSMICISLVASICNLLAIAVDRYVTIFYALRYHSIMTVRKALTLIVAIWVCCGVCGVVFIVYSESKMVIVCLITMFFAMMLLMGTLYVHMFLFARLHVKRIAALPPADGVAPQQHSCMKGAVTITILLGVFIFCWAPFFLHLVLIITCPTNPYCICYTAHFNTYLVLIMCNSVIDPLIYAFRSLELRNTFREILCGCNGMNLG
T1 sequence (P32245 whole entry): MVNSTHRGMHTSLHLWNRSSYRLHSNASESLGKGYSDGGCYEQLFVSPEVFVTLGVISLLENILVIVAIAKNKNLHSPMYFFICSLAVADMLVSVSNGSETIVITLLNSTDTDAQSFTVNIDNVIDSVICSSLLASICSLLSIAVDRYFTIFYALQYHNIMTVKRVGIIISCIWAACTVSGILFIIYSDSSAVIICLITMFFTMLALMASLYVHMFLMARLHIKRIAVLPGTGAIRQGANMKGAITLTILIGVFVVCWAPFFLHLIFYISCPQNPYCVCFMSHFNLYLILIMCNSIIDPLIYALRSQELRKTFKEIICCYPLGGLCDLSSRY
T4 sequence (P33032 whole entry): as the sequence (P33032 whole entry) above
T6 sequence (P32245 whole entry): as the sequence (P32245 whole entry) above

Take `N=C(N)NCCC[C@H]1C(=O)N2C(CC[C@@H]2COc2ccc3ccccc3c2)N1C(=O)[C@@H](Cc1ccc(Cl)cc1Cl)NC(=O)[C@@H]1Cc2ccccc2CN1` (some centres unmarked) [Example 112]: on MC4-R [1], the “Inhibition at 1 μM MC4-R” value came out at 100%. Also, the Ki worked out at 111 nM in assay [2], 1 nM on MC4-R [4], 26 nM on MC5-R [7] and 42 nM at MC3-R [8]. The “agonist/antagonist status as to MC1-R” value in assay [3] is “inactive”. Moreover, at MC5-R [5], the “Inhibition at 1 μM MC5-R” value is reported as 96%. The “agonist/antagonist status as to MC5-R” value at MC5-R (HEK-293 cells) is recorded as “antagonist”. In addition, at MC3-R [6], the “Inhibition at 1 μM MC3-R” value stood at 88%. At MC4-R (HEK-293 cells), the “agonist/antagonist status as to MC4-R” value was “antagonist”. For the same molecule, the “Inhibition at 1 μM MC1-R” value in assay [9] amounted to 75%.

(Values after patent US7807678B2, “Peptidomimetics of biologically active metallopeptides” (Palatin Technologies, Inc., priority 2001, dated 2010).)
